Assay results from patent US12285012B2, “Compositions comprising pyridine carboxylate herbicides with acetolactate synthase (ALS) inhibitor herbicides” (Corteva Agriscience LLC, priority 2018, dated 2025).
Where “and” joins values, the source holds several entries; their conditions need not be identical. Equal values may be shown once. Read-outs that look alike come from different tables or passages of the source.

Experiments:
Test in all cases: Greenhouse postemergence herbicidal effect
Format in all cases: in vivo
[1] = system: Canadian thistle (CIRAR, Cirsium arvense)
In short: (§1)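 Herbicide mixtures, dosed as g ae/ha for the pyridine carboxylate and g ai/ha for the ALS inhibitor, are applied postemergence with cloquintocet-mexyl safener. Control plants receive solvent blank. Percent injury is assessed by eye 20–22 d later.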

[2] = system: chickweed (STEME, Stellaria media)
In short: as §1

[3] = system: pineapple weed (MATMT, Matricaria discoidea)
In short: as §1

[4] = system: winter rape (BRSNW, Brassica napus)
In short: as §1

[5] = system: kochia (KCHSC, Kochia scoparia)
In short: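 Plants at the second or third true leaf stage received overhead spray at 187 L/ha, with the pyridine carboxylate (plus cloquintocet-mexyl safener) alone or with ALS herbicides in 1.25% v/v crop oil. Rates are in g ae/ha or g ai/ha. Visual injury versus solvent-blank controls was scored 0–100% after 20-22 d in the greenhouse.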

[6] = system: common lambsquarters (CHEAL, Chenopodium album L.)
[7] = Compound A 10 g/ha (Examples 62-63)
[8] = Compound A 10 g/ha, safener mefenpyr-diethyl

N#CCOC(=O)c1nc(-c2ccc3cc[nH]c3c2F)c(F)c(N)c1Cl [Compound A, cyanomethyl 4-amino-3-chloro-5-fluoro-6-(7-fluoro-1H-indol-6-yl)pyridine-2-carboxylate]
pest or weed control at 10 g/ha ([1]; Cirsium arvense, post-emergence, 10 g/ha, read-out: % visual injury, Obs): 43% | pest or weed control at 10 g/ha ([1]; Cirsium arvense, post-emergence, CIRAR, Compound A 10 g/ha, read-out: % visual injury, Obs): 33% | pest or weed control at 15 g/ha ([1]; Cirsium arvense, post-emergence, CIRAR, Compound A 15 g/ha, read-out: % visual injury, Obs): 55% | pest or weed control at 10 g/ha ([1]; Cirsium arvense, post-emergence, Compound A 10 g/ha, read-out: % visual injury, Obs): 20% | pest or weed control at 10 g/ha ([1]; Cirsium arvense, post-emergence, Compound A 10 g/ha, safener mefenpyr-diethyl, read-out: % visual injury, Obs): 43% | % visual injury ([1]; Compound A 10 g/ha): 40% and 60% and 30% and 33% | % visual injury Obs ([1]; Compound A 10 g/ha): 33% and 55% | CIRAR % visual injury Obs [1, 7]: 20% | CIRAR % visual injury Obs [1, 8]: 43% | % visual injury ([1]; Compound A 15 g/ha): 65% and 55% | % visual injury Obs ([1]; Compound A 15 g/ha): 55% | % visual injury ([2]; Compound A 10 g/ha): 100% | % visual injury, Obs [2, 8]: 83% | STEME % visual injury Obs [2, 8]: 83% | % visual injury ([2]; Compound A 15 g/ha): 100% | % visual injury ([3]; Compound A 10 g/ha): 15% | % visual injury ([3]; Compound A 15 g/ha): 30% | % visual injury, Obs ([4]; 10 g/ha): 68% | % visual injury, Obs ([4]; BRSNW, Compound A 10 g/ha): 45% | Obs % visual injury ([4]; BRSNW, Compound A 10 g/ha): 45% and 40% | Obs % visual injury ([4]; BRSNW, Compound A 10 g/ha (Table 66)): 68% | Obs % visual injury ([4]; BRSNW, Compound A 10 g/ha (Table 67)): 60% | % visual injury, Obs ([4]; BRSNW, Compound A 15 g/ha): 73% | Obs % visual injury ([4]; BRSNW, Compound A 15 g/ha): 73% | Obs % visual injury ([4]; BRSNW, Compound A 15 g/ha (Table 67)): 75% | % visual injury ([4]; Compound A 10 g/ha): 75% and 43% and 68% and 45% | % visual injury Obs ([4]; Compound A 10 g/ha): 45% and 40% | % visual injury ([4]; Compound A 15 g/ha): 75% and 73% | % visual injury Obs ([4]; Compound A 15 g/ha): 73% | pest or weed control at 10 g/ha ([5]; Bassia scoparia, post-emergence, 10 g/ha, read-out: % visual injury, Obs): 68% | pest or weed control at 10 g/ha ([5]; Bassia scoparia, post-emergence, Compound A 10 g/ha, read-out: % visual injury, Obs): 65% | pest or weed control at 10 g/ha ([5]; Bassia scoparia, post-emergence, Compound A 10 g/ha, safener mefenpyr-diethyl, read-out: % visual injury, Obs): 70% | pest or weed control at 10 g/ha ([5]; Bassia scoparia, post-emergence, KCHSC, Compound A 10 g/ha, read-out: % visual injury, Obs): 68% | pest or weed control at 15 g/ha ([5]; Bassia scoparia, post-emergence, KCHSC, Compound A 15 g/ha, read-out: % visual injury, Obs): 68% | % visual injury ([5]; Compound A 10 g/ha): 75% and 63% and 70% and 68% | % visual injury Obs ([5]; Compound A 10 g/ha): 68% and 58% and 70% | KCHSC % visual injury Obs [5, 7]: 65% | KCHSC % visual injury Obs [5, 8]: 70% | % visual injury ([5]; Compound A 15 g/ha): 75% and 68% | % visual injury Obs ([5]; Compound A 15 g/ha): 68% | Obs % visual injury ([5]; KCHSC, Compound A 10 g/ha): 68% and 70% and 65% | Obs % visual injury ([5]; KCHSC, Compound A 10 g/ha (Table 65)): 65% | Obs % visual injury ([5]; KCHSC, Compound A 10 g/ha (Table 66)): 70% | Obs % visual injury ([5]; KCHSC, Compound A 10 g/ha (Table 67)): 70% | Obs % visual injury ([5]; KCHSC, Compound A 15 g/ha): 68% | Obs % visual injury ([5]; KCHSC, Compound A 15 g/ha (Table 67)): 70% | % visual injury, Obs ([6]; 10 g/ha): 83% and 90% and 78% | % visual injury, Obs ([6]; CHEAL, Compound A 10 g/ha): 78% and 83% | Obs % visual injury ([6]; CHEAL, Compound A 10 g/ha): 78% and 80% and 88% | Obs % visual injury ([6]; CHEAL, Compound A 10 g/ha (Table 65)): 88% | Obs % visual injury ([6]; CHEAL, Compound A 10 g/ha (Table 66)): 78% | Obs % visual injury ([6]; CHEAL, Compound A 10 g/ha (Table 67)): 78% | % visual injury, Obs ([6]; CHEAL, Compound A 15 g/ha): 85% | Obs % visual injury ([6]; CHEAL, Compound A 15 g/ha): 85% | Obs % visual injury ([6]; CHEAL, Compound A 15 g/ha (Table 67)): 83% | % visual injury ([6]; Compound A 10 g/ha): 93% and 78% | % visual injury Obs ([6]; Compound A 10 g/ha): 78% and 83% and 80% | % visual injury, Obs ([6]; Compound A 10 g/ha): 88% | CHEAL % visual injury Obs [6, 7]: 88% | % visual injury, Obs [6, 8]: 100% | CHEAL % visual injury Obs [6, 8]: 100% | % visual injury ([6]; Compound A 15 g/ha): 85% | % visual injury Obs ([6]; Compound A 15 g/ha): 85%
